For the experiment, the target named is alanyl aminopeptidases (APN) (Homo sapiens, UniProt P15144). Kind of experiment: Inhibition of alanyl aminopeptidase enzymatic activity, fluorogenic substrate (Ala)2-rhodamine 110. It counts as biochemical. The conditions noted are these: Table 3, unstarred values; read-out: IC50APN. The method, then:
The inhibition characteristics measured are referred to as IC-50 values or ID50 values (the latter marked with “*”) for said enzyme. The enzymatic activity was determined by means of the fluorogenic substrate/product (Ala)2-rhodamine 110.

Sequence of alanyl aminopeptidases (APN) (P15144 whole entry, species assumed): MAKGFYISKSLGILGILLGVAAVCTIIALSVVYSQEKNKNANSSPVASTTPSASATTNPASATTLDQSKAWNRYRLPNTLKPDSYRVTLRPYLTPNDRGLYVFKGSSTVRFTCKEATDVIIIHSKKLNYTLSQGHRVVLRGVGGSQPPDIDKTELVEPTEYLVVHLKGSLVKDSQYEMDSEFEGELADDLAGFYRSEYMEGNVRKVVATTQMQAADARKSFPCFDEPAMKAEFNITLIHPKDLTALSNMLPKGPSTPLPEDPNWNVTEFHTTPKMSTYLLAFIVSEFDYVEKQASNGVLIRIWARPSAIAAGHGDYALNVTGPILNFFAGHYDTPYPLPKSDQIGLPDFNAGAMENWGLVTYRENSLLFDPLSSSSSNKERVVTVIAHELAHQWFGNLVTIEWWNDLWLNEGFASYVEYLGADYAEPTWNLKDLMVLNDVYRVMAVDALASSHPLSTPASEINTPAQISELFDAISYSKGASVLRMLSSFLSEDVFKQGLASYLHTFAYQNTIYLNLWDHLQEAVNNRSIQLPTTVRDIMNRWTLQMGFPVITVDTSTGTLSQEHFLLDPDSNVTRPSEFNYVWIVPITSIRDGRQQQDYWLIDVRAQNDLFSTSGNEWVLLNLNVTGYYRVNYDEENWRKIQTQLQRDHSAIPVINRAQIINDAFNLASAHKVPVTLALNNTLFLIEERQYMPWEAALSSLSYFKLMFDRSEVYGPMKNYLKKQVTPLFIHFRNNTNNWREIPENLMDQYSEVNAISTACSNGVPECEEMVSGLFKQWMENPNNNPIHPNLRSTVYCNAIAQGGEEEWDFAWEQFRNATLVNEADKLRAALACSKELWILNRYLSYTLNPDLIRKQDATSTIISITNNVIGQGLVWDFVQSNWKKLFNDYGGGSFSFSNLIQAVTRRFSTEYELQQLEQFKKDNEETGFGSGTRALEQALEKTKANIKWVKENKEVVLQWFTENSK

As for `CCOC(=O)c1c(N)ncn1-c1ccccc1` [A3.020], the IC50 was found to be 5.4 µM. As for `CC1CCN(C(=O)/C(=C\c2ccco2)NC(=O)c2ccc(Cl)cc2)CC1` [A3.022], the IC50 came out at 6.2 µM.

Regarding `COC(=O)c1cccc(-c2ccc(/C=C3\C(=O)N(CCO)C(=O)C(C#N)=C3C)o2)c1` [A3.023], the IC50 was 6.3 µM. With `CCc1cccc(CC)c1NC(=S)N/N=C1\C(=O)N(CN2CC(C)CC(C)C2)c2ccccc21` (stereo not drawn) [A3.024] the figure was 6.6 µM; with `Cc1ccc(/C=N/NC(=O)c2nnn(-c3nonc3N)c2-c2ccccc2)o1` [A3.025], 6.9 µM. With `CCOC(=O)N1CCc2c(sc(NC(=O)c3ccc(F)cc3)c2C(=O)Nc2ccc(Br)cc2)C1` [A3.026] the figure was 7.3 µM; with `CCOC(=O)C1C(C)C2C3C(=O)N(c4cccc5ccccc45)C(=O)C3C1(C)C1C(=O)N(c3cccc4ccccc34)C(=O)C21` (stereo not drawn) [A3.027], 7.4 µM. On to `O=C(N/N=C\c1ccco1)c1ccc(S(=O)(=O)N2CCCCCC2)cc1` [A3.029], for which the IC50 was 8 µM. In the case of `COc1ccc(Cl)cc1C(=O)N/C(=C/c1ccco1)C(=O)N1CC2CC(C1)c1cccc(=O)n1C2` (stereo not drawn) [A3.030] it was 8.1 µM. For `O=C(Nc1cccc(/N=C/c2cc(Br)cc(Br)c2O)c1)c1ccco1` [A3.031], the IC50 was determined as 8.2 µM. As to `CCCCOC(=O)c1ccc(NC(=O)/C=C\c2ccco2)cc1` [A3.032], the IC50 was 8.3 µM. On to `O=C(/C=C/c1ccco1)Nc1ccc(C(=O)O)cc1` [A3.033], for which the IC50 was 8.4 µM.

As for `COc1ccc(C2NCCS2)cc1` (stereo not drawn) [A3.035], the IC50 worked out at 9.5 µM. With `CC1=C(C#N)C(=O)N(CCCO)C(=O)/C1=C\c1ccc(-c2cc(C)c(C)cc2[N+](=O)[O-])o1` [A3.037] the figure was 9.7 µM; with `Cc1ccc(/C=N/NC(=O)c2cccc(NC(=O)c3ccc(F)cc3)c2)o1` [A3.038], 9.8 µM; with `Cc1ccc(/C=N/NC(=O)c2cccc(Cl)c2)o1` [A3.039], 10.5 µM. With `O=C(N/C(=C\c1ccco1)C(=O)N1CCCCC1)c1ccco1` [A3.040] the figure was 10.6 µM; with `Cc1ccc(/C=N/NC(=O)c2nnn(-c3nonc3N)c2C)o1` [A3.041], 10.9 µM. In the case of `Cc1ccc(C(=O)N/C(=C\c2ccco2)C(=O)N2CC3CC(C2)c2cccc(=O)n2C3)cc1` (stereo not drawn) [A3.042] it was 11 µM; in that of `COc1cc(Br)ccc1OCC(=O)N/N=C/C=C/c1ccco1` [A3.043], 11 µM; in that of `C=CC[N+]1=C(/C=C2\SC(c3ccccc3)=C(c3ccccc3)N2CC)S/C(=C/C=C2\SC(c3ccccc3)=C(c3ccccc3)N2CC)C1=O` [A3.045], 11.1 µM. Turning to `Cc1[nH]c2ccccc2c1C(c1cc(Cl)ccc1O)N1CCOCC1` (stereo not drawn) [A3.046], the IC50 was 11.7 µM. For the compound `NNC(=O)c1ccc(NS(=O)(=O)c2cccs2)cc1` [A3.047], the IC50 came out at 11.8 µM.

For the compound `Cc1ccc(C(=O)N/C(=C\c2ccco2)C(=O)N2CC3CC(C2)c2cccc(=O)n2C3)cc1C` (stereo not drawn) [A3.048], the IC50 turned out to be 11.8 µM. Consider `C/C(=N\NC(=O)CNC(=O)/C=C/c1ccco1)c1ccc2ccccc2c1` [A3.050], for which the IC50 was 12 µM. In the case of `CCOc1cc(/C=N/NC(=O)CNC(=O)c2cccc(Cl)c2)ccc1OC(=O)c1cccs1` [A3.051] it was 12.2 µM; in that of `Cc1nc(N)sc1C(=O)N/N=C/c1ccco1` [A3.052], 12.3 µM; in that of `COCc1c(C(=O)N/N=C/c2ccc(C)o2)nnn1-c1nonc1N` [A3.053], 12.5 µM. In the case of `CCN(CC)C(=O)/C(=C/c1ccco1)NC(=O)c1ccccc1` [A3.054] it was 12.8 µM; in that of `Cc1cccc(C)c1NC(=S)NC(=O)c1cccs1` [A3.055], 12.9 µM. In the case of `O=C(COc1cccc2ccccc12)N/N=C/c1ccco1` [A3.056] it was 12.9 µM. `CC(C)COc1ccc(C(=O)N/C(=C\c2ccco2)C(=O)N2CCOCC2)cc1` [A3.057]: the IC50 was 13.1 µM. In the case of `O=C(N/C(=C\c1ccco1)C(=O)N1CCOCC1)c1ccco1` [A3.058] it was 13.5 µM; in that of `COC(=O)N/N=C(C)\C=C\c1ccco1` [A3.059], 13.5 µM; in that of `O=C(COc1ccc(F)cc1)N/N=C/c1ccco1` [A3.060], 13.6 µM. In the case of `CCc1ccc(-c2cc(C(=O)N/N=C/c3c(C)nn(-c4ccccc4)c3C)[nH]n2)cc1` [A3.061] it was 13.6 µM. In the case of `O=C(COc1ccc2ccccc2c1)N/N=C/c1ccco1` [A3.062] it was 13.9 µM; in that of `CCOC(=O)c1ncn(Cc2ccccc2)c1N` [A3.063], 14 µM. On to `O=C(N/N=C/c1ccco1)c1cc(C2CC2)n[nH]1` [A3.064], for which the IC50 was found to be 14.3 µM. In the case of `Clc1ccc(-n2cc3c(-c4ccco4)nnc(-c4nc5ccccc5s4)c3n2)cc1` [A3.065] it was 14.3 µM; in that of `O=C(N/N=C/c1ccco1)c1cc(-c2ccc(F)cc2)n[nH]1` [A3.066], 14.4 µM; in that of `O=c1[nH]c(/C=C/c2ccco2)cc2ccccc12` [A3.067], 14.6 µM. In the case of `N/C(=N\N=C\c1ccco1)c1nonc1N` [A3.068] it was 14.6 µM. With `COC(=O)c1cc(-c2ccc(/C=C3\C(=O)N(CCCO)C(=O)C(C#N)=C3C)o2)ccc1Cl` [A3.069] the figure was 15.2 µM. Take `O=C(NNC1=C(Cl)C(=O)C(Cl)(Cl)C1=O)c1ccccc1` [A3.070]: the IC50 is 15.2 µM.

Turning to `O=C(CNC(=O)C(c1ccccc1)c1ccccc1)N/N=C/c1ccco1` [A3.071], the IC50 is 15.6 µM. With `CCOC(=O)CCCCC(=O)c1c(C)n(C(=O)c2ccc(N3C(=O)CCC3=O)cc2)c(=O)n1C(=O)c1ccc(N2C(=O)CCC2=O)cc1` [A3.072] the figure was 15.6 µM.

On to `Cc1ccc(/C=C(\NC(=O)c2ccccc2)C(=O)NC2CC2)o1` [A3.073], for which the IC50 was determined as 15.6 µM. Regarding `O=C(N/N=C/C=C\c1ccco1)c1ccco1` [A3.074], the IC50 is 16 µM. With `O=C(N/N=C/c1ccco1)c1ccccc1O` [A3.075] the figure was 16 µM; with `Cc1ccc(/C=N/NC(=O)COc2ccc(Cl)cc2)o1` [A3.076], 16 µM. In the case of `Cc1ccc(NC(=O)/C(=C\c2ccco2)NC(=O)c2ccc(C)cc2)cc1` [A3.077] it was 16.4 µM; in that of `COc1ccc(C2NCCS2)cc1Br` (stereo not drawn) [A3.078], 16.4 µM. With `CC(C)c1cc(C(=O)N/N=C/c2ccco2)[nH]n1` [A3.080] the figure was 16.6 µM; with `COc1ccc(/C=C(/NC(=O)c2ccccc2)C(=O)N/N=C\C=C\c2ccc(C)o2)cc1OC` [A3.081], 16.7 µM. Consider `O=C(N/N=C/c1ccco1)c1ccc(O)cc1` [A3.082], for which the IC50 was determined as 16.8 µM. With `COc1cc(/C=N/NC(=O)c2cc(-c3ccco3)n[nH]2)cc(OC)c1OC` [A3.083] the figure was 17 µM. In the case of `Cc1ccc(/C=N/NC(=O)c2ccccc2Cl)o1` [A3.084] it was 17.7 µM; in that of `Cc1ccc(NC(=O)/C(=C\c2ccco2)NC(=O)c2ccccc2Cl)cc1` [A3.086], 17.9 µM; in that of `C=CCOC(=O)c1cc(-c2ccc(/C=C3/C(=O)N(CCCO)C(=O)C(C#N)=C3C)o2)ccc1Cl` [A3.087], 18.1 µM. With `Cc1cc(=O)[nH]c(N/N=C/c2ccco2)n1` [A3.088] the figure was 18.2 µM; with `CC(=O)c1cccc(-c2ccc(/C=C3/C(=O)N(CCCO)C(=O)C(C#N)=C3C)o2)c1` [A3.089], 18.2 µM. Take `Cc1ccc(/C=N/NC(=O)c2ccccc2OCc2ccccc2)o1` [A3.090]: the IC50 is 18.4 µM. For `NNC(=O)Cn1c2ccccc2n2cc(-c3ccccc3)cc12` [A3.091], the IC50 was determined as 18.7 µM. As for `O=C(Nc1ccccc1C(=O)N/N=C/c1ccco1)c1ccc(Cl)cc1Cl` [A3.092], the IC50 was 18.7 µM. In the case of `Cc1ccc(/C=N/NC(=O)c2cccc(NC(=O)c3ccccc3C)c2)o1` [A3.093] it was 18.9 µM; in that of `O=C(N/C(=C\c1ccco1)C(=O)N1CCCC(CO)C1)c1ccccc1` (stereo not drawn) [A3.094], 19 µM; in that of `Cc1cc(I)ccc1CC(=O)CCC(=O)N/N=C/c1ccco1` [A3.095], 9.5 µM.

Consider `Cc1ccccc1S(=O)(=O)Nc1cccc(C(=O)N/N=C/c2ccco2)c1` [A3.097], for which the IC50 was found to be 19.2 µM. With `CN1C/C(=C/c2ccco2)C(=O)/C(=C/c2ccco2)C1` [A3.098] the figure was 19.2 µM; with `CCCOc1ccccc1-c1cc(C(=O)N/N=C/c2ccco2)[nH]n1` [A3.100], 19.5 µM; with `O=C(N/N=C/c1cc(Br)cc(Br)c1OC(=O)c1ccccc1)/C(=C/c1ccc2c(c1)OCO2)NC(=O)c1ccccc1` [A3.101], 19.8 µM.

Consider `COc1ccc(/C(C)=N/NC(=O)CNC(=O)/C=C\c2ccco2)cc1OC` [A3.102], for which the IC50 is 19.9 µM. With `CC1CCCCN1S(=O)(=O)c1ccc(NC(=O)/C=C/c2ccco2)cc1` (stereo not drawn) [A3.103] the figure was 19.9 µM; with `CN(C)c1ccc(C2C3C(=O)N(c4ccccc4)C(=O)C3ON2c2ccc(Cl)cc2)cc1` (stereo not drawn) [A3.104], 20 µM; with `CCCOc1[nH]c(/N=C/c2ccccc2)c(C#N)c1C#N` [A3.105], 20 µM. As for `Cc1cccc(C(=O)Nc2ccc(C(=O)N/N=C/c3ccc(C)o3)cc2)c1` [A3.106], the IC50 is 20.2 µM. Take `Cc1cc(C)n(-c2nnc(N)nn2)n1` [A3.107]: the IC50 came to 20.3 µM. In the case of `COc1cc(Br)ccc1OCC(=O)N/N=C/c1cc(Br)c(O)c(O)c1Br` [A3.109] it was 20.5 µM; in that of `O=C(N/N=C/c1ccco1)c1cccc(NC(=O)c2ccccc2Cl)c1` [A3.110], 20.6 µM; in that of `COc1ccc(-c2nc(C)sc2CC(=O)O)cc1` [A3.111], 20.8 µM.

For `CCCN1C(=O)C(C#N)=C(C)/C(=C\c2ccc(-c3cccc(Cl)c3C)o2)C1=O` [A3.112], the IC50 is 20.8 µM. With `O=C(N/N=C/c1ccco1)c1cc(-c2ccco2)n[nH]1` [A3.113] the figure was 20.9 µM; with `COc1ccc(C[C@@H](N)C(=O)N[C@@H]2[C@H](O)[C@H](n3cnc4c(N(C)C)ncnc43)O[C@@H]2CO)cc1` [A3.114], 20.9 µM.

Source of the values: patent US20070037752A1, “Novel alanyl-amino peptidase inhibitors for functionally influencing different cells and treating immunological, inflammatory, neuronal, and other diseases” (priority 2003, published 2007).
